# Key:
# Assay in all cases: selective drug sensitivity score (sDSS, relative to normal bone marrow) (sDSS (score)); higher = more potent and effective on the cell line relative to normal bone marrow cells
# Settings in all cases: 72 h
# 380 = system: 380
# JURKAT = system: JURKAT
# MOLT-14 = system: MOLT-14
# 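Note: ALL cell lines in 384-well plates, five doses spanning 10,000-fold, each plate scaled between vehicle and 100 µmol/L benzalkonium chloride controls, sDSS an adapted area-under-curve metric.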
Compound,selective drug sensitivity score 380,selective drug sensitivity score (JURKAT),selective drug sensitivity score (MOLT-14)
CC(C)Oc1ccc(-c2nn([C@@H](C)c3oc4ccc(F)cc4c(=O)c3-c3cccc(F)c3)c3ncnc(N)c23)cc1F [TGR-1202] (top concentration 2500 nM),-2.56,-2.56,-2.56
C[C@H](Nc1ncnc2nc[nH]c12)c1cc2cccc(Cl)c2c(=O)n1-c1ccccc1 [Duvelisib] (top concentration 500 nM),1.46,-0.94,-0.94
Cc1c(-c2c(-c3ccc(F)o3)sc3ncnc(O[C@H](Cc4ccccc4OCc4ccnn4CC(F)(F)F)C(=O)O)c23)ccc(OCCN2CCN(C)CC2)c1Cl (top concentration 1000 nM),0.86,-6.44,3.06
CN[C@@H](C)C(=O)N[C@H](C(=O)N1CCC[C@H]1c1nc(C(=O)c2ccc(F)cc2)cs1)C1CCCCC1 [NVP-LCL161] (top concentration 25000 nM),-5.02,-3.82,-3.52
Nc1ccccc1NC(=O)c1ccc(CNC(=O)OCc2cccnc2)cc1 [Entinostat] (top concentration 10000 nM),13.1,2.68,7.98
O=C(/C=C\n1cnc(-c2cc(C(F)(F)F)cc(C(F)(F)F)c2)n1)NNc1cnccn1 [Selinexor] (top concentration 10000 nM),18.1,12.8,16.7
Nc1ncnc2c1nc(N)n2[C@@H]1O[C@H](CO)[C@@H](O)[C@H]1O [8-amino-adenosine] (top concentration 50000 nM),9.38,-5.42,5.18
C[C@H]1O[C@@H](O[C@H]2[C@@H](O)C[C@H](O[C@H]3[C@@H](O)C[C@H](O[C@H]4CC[C@@]5(C)[C@H](CC[C@@H]6[C@@H]5C[C@@H](O)[C@]5(C)[C@@H](C7=CC(=O)OC7)CC[C@]65O)C4)O[C@@H]3C)O[C@@H]2C)C[C@H](O)[C@@H]1O [Digoxin] (top concentration 1000 nM),22.5,10,8
COc1ccc(COc2cc3oc(=O)c4cc(C(C)O)ccc4c3cc2OC)cc1 (stereo not drawn) [Palomid-529] (top concentration 10000 nM),5.86,5.16,2.76
NC1(c2ccc(-c3nc4ccn5c(=O)[nH]nc5c4cc3-c3ccccc3)cc2)CCC1 [MK-2206] (top concentration 1000 nM),4.76,-0.24,-1.64
C[C@@H](Nc1cc(F)cc(F)c1)c1cc(C(=O)N(C)C)cc2c(=O)cc(N3CCOCC3)oc12 [AZD-8186] (top concentration 1000 nM),2.84,-0.26,-0.26
CCN(CC)CCNC(=O)c1c(C)[nH]c(/C=C2\C(=O)Nc3ccc(-c4csc(-c5ccccc5)n4)cc32)c1C [Amcasertib] (top concentration 10000 nM),7.8,-2.2,3.4
C[C@H]1C=C2C(=O)O[C@H]3CC[C@@H](C1)[C@@]23O [Galiellalactone] (top concentration 25000 nM),13,1.66,5.26
COC(=O)N[C@@H](C)CNc1nccc(-c2cn(C(C)C)nc2-c2cc(Cl)cc(NS(C)(=O)=O)c2F)n1 [Encorafenib] (top concentration 1000 nM),0,1.7,0
NC(=O)N1CCC(CC(=O)N2CCC([C@H]3c4ncc(Br)cc4CCc4cc(Cl)cc(Br)c43)CC2)CC1 [Lonafarnib] (top concentration 100000 nM),-1.06,5.74,14.1
Cc1nc(NC(=O)N2CCC[C@H]2C(N)=O)sc1-c1ccnc(C(C)(C)C(F)(F)F)c1 [Alpelisib] (top concentration 2500 nM),3.18,-0.82,-0.82
O=C(Nc1ccc2[nH]nc(-c3ccncc3)c2c1)[C@@H]1CCN(CC(=O)N2CCN(c3ccc(-c4ncccn4)cc3)CC2)C1 (top concentration 10000 nM),1.66,-2.04,8.56
CN1CCC(CNc2ccc3ncc(-c4cccc(OC(F)(F)F)c4)n3n2)CC1 [SGI-1776] (top concentration 10000 nM),-2.38,-3.28,0.32
Nc1cc(F)ccc1NC(=O)c1ccc(CNC(=O)/C=C/c2cccnc2)cc1 [Tucidinostat] (top concentration 10000 nM),12.5,1.34,3.94
Cn1cnc2c(F)c(Nc3ccc(Br)cc3Cl)c(C(=O)NOCCO)cc21 [Selumetinib] (top concentration 10000 nM),9.6,-3.5,7.2
COc1c(C)cnc(Cn2cnc3c(Cl)nc(N)nc32)c1C [BIIB021] (top concentration 10000 nM),7.68,0.48,7.28

Compound,selective drug sensitivity score 380,selective drug sensitivity score (JURKAT),selective drug sensitivity score (MOLT-14)
CN(c1ncccc1CNc1nc(Nc2ccc3c(c2)CC(=O)N3)ncc1C(F)(F)F)S(C)(=O)=O (top concentration 10000 nM),4.02,1.52,-0.08
CC(=O)O[C@]1(C(C)=O)CC[C@H]2[C@@H]3C=C(C)C4=CC(=O)CC[C@]4(C)[C@H]3CC[C@@]21C [Megestrol_acetate] (top concentration 10000 nM),7.02,1.02,0.22
Cn1cc(-c2ccc(F)c(C(F)(F)F)c2)nc1C1CCN(c2ncnc3[nH]ncc23)CC1 (top concentration 10000 nM),12.3,-0.14,-0.14
O=C(O)c1ccc2c(c1)nc(Nc1cccc(Cl)c1)c1ccncc12 [Silmitasertib] (top concentration 10000 nM),7.7,3.2,4.1
C[C@@H]1COC(Nc2ccc3ncnc(Nc4ccc(OCc5nccs5)c(Cl)c4)c3c2)=N1 [Varlitinib] (top concentration 10000 nM),18.5,-0.18,-0.18
Cc1ncc(Cl)cc1NCc1ccc(C(=O)N[C@@H](CC2CCCC2)C(=O)NC2CC2)s1 (top concentration 5000 nM),9.86,0.76,2.96
O=C(Nc1c[nH]nc1-c1nc2ccc(CN3CCOCC3)cc2[nH]1)NC1CC1 [AT9283] (top concentration 1000 nM),11.3,-1.38,13.8
Cn1cc(CNCC2CCN(c3ncc(C(=O)NO)cn3)CC2)c2ccccc21 [Quisinostat] (top concentration 1000 nM),6.68,1.78,6.98
NC1(C(=O)N[C@@H](CCO)c2ccc(Cl)cc2)CCN(c2ncnc3[nH]ccc23)CC1 [AZD-5363] (top concentration 10000 nM),8.82,6.72,-1.88
Nc1cc(C(F)(F)F)c(-c2cc(N3CCOCC3)nc(N3CCOCC3)n2)cn1 [Buparlisib] (top concentration 10000 nM),7.18,8.18,5.48
CC(C)(C)Cn1c(N)nc2ccc(-c3[nH]c(C(C)(C)C)nc3-c3ccc(F)cc3)nc21 [Ralimetinib] (top concentration 10000 nM),-0.84,1.76,6.96
CN[C@@H]1C[C@H]2O[C@@](C)([C@@H]1OC)n1c3ccccc3c3c4c(c5c6ccccc6n2c5c31)C(=O)N[C@H]4O [UCN-01] (top concentration 10000 nM),13.5,0.34,6.14
CCN(CC)CCNC(=O)c1c(C)[nH]c(/C=C2\C(=O)Nc3ccc(F)cc32)c1C [Sunitinib] (top concentration 1000 nM),-1.44,-1.44,0.76
CC(C)[C@@H](CS(=O)(=O)C(C)C)N1C(=O)[C@@](C)(CC(=O)O)C[C@H](c2cccc(Cl)c2)[C@H]1c1ccc(Cl)cc1 [AMG-232] (top concentration 10000 nM),13,-8.34,10.1
COc1cc(Nc2ncc(F)c(Nc3ccc4c(n3)NC(=O)C(C)(C)O4)n2)cc(OC)c1OC [Tamatinib] (top concentration 10000 nM),-5.42,-5.42,-4.62
O=C1CCc2c(Oc3ccc4c(c3)[C@@H]3[C@H](O4)[C@H]3c3nc4cc(C(F)(F)F)ccc4[nH]3)ccnc2N1 [Lifirafenib (BGB-283)] (top concentration 10000 nM),0.98,5.28,4.58
CC(C)(C)c1cc(NC(=O)Nc2ccc(Oc3ccnc4[nH]c(=O)cnc34)cc2F)n(-c2ccccc2)n1 (top concentration 25000 nM),-4.68,-1.48,-4.58
Nc1ncnc2c1c(-c1cccc(OCc3ccccc3)c1)cn2[C@H]1C[C@@H](CN2CCC2)C1 [NVP-AEW541] (top concentration 10000 nM),4.48,-4.72,-1.62
O=C(CCCCCCNC(=O)c1cnc(N(c2ccccc2)c2ccccc2)nc1)NO [Rocilinostat] (top concentration 10000 nM),8.54,2.74,8.44
CNc1ncc2cc(-c3cc(NC(=O)NCCC(C)(C)C)c(F)cc3C)c(C)nc2n1 (top concentration 10000 nM),7.76,2.56,12.5
